Measured values: paper PMC5349910, “Discovery of BPR1K871, a quinazoline based, multi-kinase inhibitor for the treatment of AML and solid tumors: Rational design, synthesis, in vitro and in vivo evaluation” (Oncotarget, 2016)
“Also recorded” adds a separate entry of the source.

What was measured:
[1] = biological target: T1, AURKA (Homo sapiens, UniProt O14965); test: AURKA inhibition assay (Kinase-Glo); type: biochemical; settings: mean of at least two independent experiments, within ±15%
T1 construct: recombinant GST-AURKA (residues Ser123-Ser401) containing the kinase domain; GST (N); made in house; host or cells: Sf9 insect cells
T1 sequence (O14965 123-401): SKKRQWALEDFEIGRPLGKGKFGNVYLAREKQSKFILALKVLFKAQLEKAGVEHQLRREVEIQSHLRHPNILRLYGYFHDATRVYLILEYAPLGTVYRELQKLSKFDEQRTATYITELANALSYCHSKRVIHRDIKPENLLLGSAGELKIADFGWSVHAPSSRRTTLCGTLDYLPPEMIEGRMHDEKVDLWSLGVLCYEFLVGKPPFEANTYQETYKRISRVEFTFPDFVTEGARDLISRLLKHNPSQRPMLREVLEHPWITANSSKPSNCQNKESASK
Experimental: AURKA assay was conducted as previously described. Briefly, the recombinant GST-AURKA (residues Ser123-Ser401) containing the kinase domain was expressed in Sf9 insect cells.
Following incubation, 50 μL Kinase-Glo Plus Reagent (Promega, Madison, WI, USA) was added, and the mixture was incubated at 25°C for 20 min.

[2] = tested on: Mia-PaCa2 cells; test: Anti-proliferative activity, Mia-PaCa2; type: cell-based, human; settings: supplement values ± SEM
[3] = tested on: MESSA/DX cells; test: Anti-proliferative activity, MESSA/DX; type: cell-based; settings: Homo sapiens; Doxorubicin Drug Resisted MESSA
[4] = tested on: CL 1-5 cells; test: Anti-proliferative activity, CL 1-5; type: cell-based; settings: CL1-5; Human Lung Adenocarcinoma
[5] = tested on: FLT3 phosphorylation (pFLT3 at residue Y591); test: Western blot, FLT3 phosphorylation in MV4-11 cells; type: cell-based, human; settings: 2.0 h
Experimental: In order to understand the mode of action of BPR1K871, mechanistic studies in MV4-11 cell line using western blot analysis was carried out. MV4-11 cells were incubated with BPR1K871 in a dose-dependent manner for 2.0 h. Cell lysates were prepared and analyzed by immunoblotting for both FLT3 phosphorylation (pFLT3 at residue Y591) and AURKA phosphorylation (pAURKA at residue T288).
Western blot analysis was conducted as previously described. Primary antibodies against phospho-FLT3 (Tyr591) (#3461) and phospho-AURKA (Thr288) (#3079) were purchased from Cell Signaling Technology. The anti-FLT3 antibody (sc-480) and anti-AURKA antibody (07–648) were purchased from Santa Cruz Biotechnology and Upstate, respectively. The anti-β-actin rabbit polyclonal antibody (GTX110564) was purchased from GeneTex (CA, USA). The secondary antibodies horseradish peroxidase (HRP)-linked goat anti-rabbit IgG (111-035-003) were purchased from Jackson Immuno (West Grove, PA, USA). MV4-11 cells were incubated with compound BPR1K871 for 2.0 h at the indicated concentrations. Cell lysates were prepared and analyzed by immunoblotting. For AURKA analysis, the cell lysates were obtained from MV4-11 cells incubated for 16 h with 40 ngmL^-1 nocodazole, followed by drug treatment for 2.0 h at the indicated concentrations.

[6] = tested on: phospho AURKA (Thr288), AURKB (Thr232), AURKC (Thr198), and phospho histone H3 (Ser10); test: Western blot, phosphorylation of Aurora substrates in HCT-116 cells; type: cell-based, human; settings: 2.0 h, dose dependent
Text: BPR1K871 inhibited phospho AURKA (Thr288), AURKB (Thr232), AURKC (Thr198), and phospho histone H3 (Ser10) formation in HCT-116 cells in a dose dependent manner (Figure 7A).

[7] = biological target: CYP 2C9 (Homo sapiens, UniProt P11712); test: CYP inhibition assay, CYP 2C9; type: in vitro ADME
[8] = biological target: CYP 2D6 (Homo sapiens, UniProt P10635); test: CYP inhibition assay, CYP 2D6; type: in vitro ADME
[9] = biological target: CYP 2E1 (Homo sapiens, UniProt P05181); test: CYP inhibition assay, CYP 2E1; type: in vitro ADME
[10] = tested on: COLO205 tumors
[11] = biological target: FLT3 (Homo sapiens, UniProt P36888); test: KINOMEScan, FLT3; settings: read-out: FLT3 % control
[12] = biological target: AURKA (Homo sapiens, UniProt O14965); test: KINOMEScan, AURKA; settings: read-out: AURKA % control
Target sequence in this assay (O14965 whole entry, the tested form may be a part): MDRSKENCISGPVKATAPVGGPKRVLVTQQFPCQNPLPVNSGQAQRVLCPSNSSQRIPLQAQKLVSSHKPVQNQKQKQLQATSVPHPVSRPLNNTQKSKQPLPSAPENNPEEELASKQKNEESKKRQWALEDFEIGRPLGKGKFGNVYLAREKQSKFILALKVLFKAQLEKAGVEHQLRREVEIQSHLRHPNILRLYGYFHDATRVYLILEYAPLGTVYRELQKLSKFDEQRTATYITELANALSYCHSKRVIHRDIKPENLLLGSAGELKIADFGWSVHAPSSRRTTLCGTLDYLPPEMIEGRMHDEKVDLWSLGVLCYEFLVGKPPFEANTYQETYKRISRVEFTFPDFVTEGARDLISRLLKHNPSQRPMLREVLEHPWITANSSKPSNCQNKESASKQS

[13] = biological target: AURKB (Homo sapiens, UniProt Q96GD4); test: KINOMEScan, AURKB; settings: read-out: AURKB % control
[14] = biological target: AURKC (Homo sapiens, UniProt Q9UQB9); test: KINOMEScan, AURKC; settings: read-out: AURKC % control
[15] = biological target: RET^M918T (Homo sapiens, UniProt P07949, M918T); test: KINOMEScan, RET M918T; settings: read-out: RET^M918T % control
[16] = biological target: FLT3^R834Q (Homo sapiens, UniProt P36888, R834Q); test: KINOMEScan, FLT3 R834Q; settings: read-out: FLT3^R834Q % control
[17] = biological target: KIT^V559D,T670I (Homo sapiens, UniProt P10721, T670I/V559D); test: KINOMEScan, KIT V559D,T670I; settings: read-out: KIT^V559D,T670I % control
KIT^V559D,T670I, sequence (P10721 26-976 V559D/T670I): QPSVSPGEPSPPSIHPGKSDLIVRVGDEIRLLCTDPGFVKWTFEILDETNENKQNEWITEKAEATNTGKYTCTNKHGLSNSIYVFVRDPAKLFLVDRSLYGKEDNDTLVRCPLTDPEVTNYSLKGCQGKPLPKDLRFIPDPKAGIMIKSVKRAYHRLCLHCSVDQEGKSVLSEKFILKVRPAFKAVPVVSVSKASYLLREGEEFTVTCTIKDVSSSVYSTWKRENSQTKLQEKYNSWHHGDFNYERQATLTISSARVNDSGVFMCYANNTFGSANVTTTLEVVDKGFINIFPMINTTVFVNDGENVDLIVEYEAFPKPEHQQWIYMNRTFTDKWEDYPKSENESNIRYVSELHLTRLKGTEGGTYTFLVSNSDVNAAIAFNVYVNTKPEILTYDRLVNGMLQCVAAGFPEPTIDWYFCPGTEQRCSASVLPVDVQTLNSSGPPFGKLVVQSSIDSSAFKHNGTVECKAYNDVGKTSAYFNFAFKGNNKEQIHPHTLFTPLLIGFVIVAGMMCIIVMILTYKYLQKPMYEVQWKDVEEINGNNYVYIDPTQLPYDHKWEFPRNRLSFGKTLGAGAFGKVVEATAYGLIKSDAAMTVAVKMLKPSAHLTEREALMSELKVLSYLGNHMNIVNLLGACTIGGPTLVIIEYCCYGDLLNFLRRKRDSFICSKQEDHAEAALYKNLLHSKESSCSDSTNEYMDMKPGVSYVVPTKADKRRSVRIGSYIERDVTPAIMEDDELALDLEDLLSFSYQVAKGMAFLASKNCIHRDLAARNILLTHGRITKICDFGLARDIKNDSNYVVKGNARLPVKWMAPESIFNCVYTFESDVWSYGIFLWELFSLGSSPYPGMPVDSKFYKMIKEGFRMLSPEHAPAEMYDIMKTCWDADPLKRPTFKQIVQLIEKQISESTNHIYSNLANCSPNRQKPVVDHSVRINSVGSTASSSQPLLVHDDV

AURKC, sequence (Q9UQB9 whole entry): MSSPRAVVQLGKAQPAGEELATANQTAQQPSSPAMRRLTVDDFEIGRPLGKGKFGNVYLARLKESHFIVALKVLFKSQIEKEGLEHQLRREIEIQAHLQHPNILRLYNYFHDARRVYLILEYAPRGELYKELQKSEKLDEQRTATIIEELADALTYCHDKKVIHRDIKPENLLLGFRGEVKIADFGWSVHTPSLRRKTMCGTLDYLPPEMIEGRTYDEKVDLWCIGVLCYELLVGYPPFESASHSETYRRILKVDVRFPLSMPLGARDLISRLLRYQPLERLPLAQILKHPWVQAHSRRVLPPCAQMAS
RET^M918T, sequence (P07949 29-1114 M918T): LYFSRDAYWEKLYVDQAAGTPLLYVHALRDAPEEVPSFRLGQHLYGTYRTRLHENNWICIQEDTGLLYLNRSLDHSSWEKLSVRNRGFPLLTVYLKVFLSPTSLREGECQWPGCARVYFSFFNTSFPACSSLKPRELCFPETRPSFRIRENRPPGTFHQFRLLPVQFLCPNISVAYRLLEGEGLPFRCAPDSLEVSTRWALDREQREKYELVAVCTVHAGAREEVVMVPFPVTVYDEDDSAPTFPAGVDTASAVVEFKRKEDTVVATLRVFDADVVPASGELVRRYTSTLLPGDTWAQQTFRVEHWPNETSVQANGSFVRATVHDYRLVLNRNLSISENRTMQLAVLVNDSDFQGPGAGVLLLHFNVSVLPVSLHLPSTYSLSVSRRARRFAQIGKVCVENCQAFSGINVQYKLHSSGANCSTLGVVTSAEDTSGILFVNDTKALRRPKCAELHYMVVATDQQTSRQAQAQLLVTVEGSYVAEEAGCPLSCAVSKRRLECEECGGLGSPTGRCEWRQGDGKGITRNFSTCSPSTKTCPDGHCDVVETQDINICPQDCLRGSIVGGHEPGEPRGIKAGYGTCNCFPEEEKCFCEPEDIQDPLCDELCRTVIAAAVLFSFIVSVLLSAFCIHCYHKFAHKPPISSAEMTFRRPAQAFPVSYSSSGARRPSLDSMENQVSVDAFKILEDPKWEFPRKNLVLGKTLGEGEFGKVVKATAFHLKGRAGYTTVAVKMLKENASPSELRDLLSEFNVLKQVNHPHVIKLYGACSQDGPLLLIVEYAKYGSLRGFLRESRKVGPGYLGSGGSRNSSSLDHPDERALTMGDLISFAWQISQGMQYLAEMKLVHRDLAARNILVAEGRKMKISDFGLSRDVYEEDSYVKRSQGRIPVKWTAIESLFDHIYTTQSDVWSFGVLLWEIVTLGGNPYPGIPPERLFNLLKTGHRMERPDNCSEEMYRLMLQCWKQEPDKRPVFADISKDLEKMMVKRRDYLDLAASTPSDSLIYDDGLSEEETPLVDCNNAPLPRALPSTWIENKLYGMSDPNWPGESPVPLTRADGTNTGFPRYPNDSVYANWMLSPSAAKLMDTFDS
CYP 2C9, sequence (P11712 whole entry): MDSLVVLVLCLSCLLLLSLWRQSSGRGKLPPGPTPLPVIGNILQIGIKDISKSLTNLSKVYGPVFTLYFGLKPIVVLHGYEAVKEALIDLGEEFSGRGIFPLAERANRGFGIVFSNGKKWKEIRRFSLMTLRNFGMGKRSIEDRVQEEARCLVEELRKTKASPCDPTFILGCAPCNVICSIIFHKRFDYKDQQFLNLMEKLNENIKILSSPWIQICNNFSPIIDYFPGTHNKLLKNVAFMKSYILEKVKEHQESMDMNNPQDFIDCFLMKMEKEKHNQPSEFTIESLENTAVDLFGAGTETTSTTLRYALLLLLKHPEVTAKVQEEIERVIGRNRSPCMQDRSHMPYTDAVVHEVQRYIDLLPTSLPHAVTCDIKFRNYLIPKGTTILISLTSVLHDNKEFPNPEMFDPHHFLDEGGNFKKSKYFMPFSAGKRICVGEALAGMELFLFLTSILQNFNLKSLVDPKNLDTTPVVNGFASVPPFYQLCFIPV
CYP 2E1, sequence (P05181 whole entry): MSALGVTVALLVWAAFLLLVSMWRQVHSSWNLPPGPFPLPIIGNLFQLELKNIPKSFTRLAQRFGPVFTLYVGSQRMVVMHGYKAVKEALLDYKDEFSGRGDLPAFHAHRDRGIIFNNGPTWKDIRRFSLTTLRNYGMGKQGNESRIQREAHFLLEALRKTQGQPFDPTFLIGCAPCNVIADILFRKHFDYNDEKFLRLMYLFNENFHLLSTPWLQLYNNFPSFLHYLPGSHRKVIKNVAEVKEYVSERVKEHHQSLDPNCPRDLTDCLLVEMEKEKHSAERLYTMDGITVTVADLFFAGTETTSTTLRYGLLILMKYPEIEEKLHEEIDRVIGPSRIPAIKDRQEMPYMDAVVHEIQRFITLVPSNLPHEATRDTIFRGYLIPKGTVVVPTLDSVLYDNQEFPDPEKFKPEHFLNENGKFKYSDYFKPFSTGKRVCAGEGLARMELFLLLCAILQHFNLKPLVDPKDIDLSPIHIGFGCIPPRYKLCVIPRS
AURKB, sequence (Q96GD4 whole entry): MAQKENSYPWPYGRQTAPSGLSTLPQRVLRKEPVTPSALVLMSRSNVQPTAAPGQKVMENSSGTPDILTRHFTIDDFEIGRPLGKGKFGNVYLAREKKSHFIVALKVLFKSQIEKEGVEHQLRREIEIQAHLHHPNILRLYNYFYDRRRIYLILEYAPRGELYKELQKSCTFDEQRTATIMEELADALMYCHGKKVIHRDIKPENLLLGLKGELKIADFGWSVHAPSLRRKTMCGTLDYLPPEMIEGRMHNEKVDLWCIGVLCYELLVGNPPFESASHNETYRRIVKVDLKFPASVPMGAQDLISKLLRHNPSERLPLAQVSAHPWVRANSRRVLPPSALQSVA
CYP 2D6, sequence (P10635 whole entry): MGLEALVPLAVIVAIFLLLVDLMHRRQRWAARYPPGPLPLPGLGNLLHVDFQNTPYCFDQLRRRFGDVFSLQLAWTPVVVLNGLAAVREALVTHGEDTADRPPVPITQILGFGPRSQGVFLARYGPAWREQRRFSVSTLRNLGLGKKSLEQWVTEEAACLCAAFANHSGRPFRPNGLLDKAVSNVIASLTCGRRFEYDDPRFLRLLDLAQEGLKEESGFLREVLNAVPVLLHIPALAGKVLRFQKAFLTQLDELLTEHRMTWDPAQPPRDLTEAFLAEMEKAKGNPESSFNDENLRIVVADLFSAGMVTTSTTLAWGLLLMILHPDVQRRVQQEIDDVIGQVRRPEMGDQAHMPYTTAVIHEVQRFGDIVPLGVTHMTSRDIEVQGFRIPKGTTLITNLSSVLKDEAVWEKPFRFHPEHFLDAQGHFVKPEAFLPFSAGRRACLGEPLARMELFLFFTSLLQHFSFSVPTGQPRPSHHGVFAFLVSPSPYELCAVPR

Question: What does the source list for CN(C)CCCOc1ccc2c(NCCc3cnc(NC(=O)Nc4cccc(Cl)c4)s3)ncnc2c1 [BPR1K871, 1-(3-Chlorophenyl)-3-(5-(2-((7-(3-(dimethylamino)propoxy)quinazolin-4-yl)amino)ethyl)thiazol-2-yl)urea]?
Answer: IC50 [1]: 22 nM; EC50 ([2]; Homo sapiens, MIA PaCa-2, Human Pancreatic Cancer): < 100 nM; EC50 ([2]; Human Pancreatic Cancer): 94 nM; EC50 [3]: 6.9 µM; EC50 [4]: 1390 nM; concentration that completely inhibited formation of pFLT3 (Tyr591) [5]: 2 nM; inhibition of phospho AURKA, AURKB, AURKC and phospho histone H3 formation [6]: inhibited; also recorded: decreased levels; IC50 [7]: > 4 µM; IC50 [8]: > 4 µM; IC50 [9]: > 4 µM; TGI ± SD ([10]; COLO205, 20 mg/kg iv once a day, days 1–5 and 8–12, day 15, n = 8): 93 ± 9%; body weight loss ([10]; COLO205 model, 20 mg/kg iv): ≤ 15%; mortality during the study ([10]; COLO205 model, 20 mg/kg iv): no mice died; remaining binding at 1 µM [11]: 0.2%; remaining binding at 1 µM [12]: 0%; remaining binding at 1 µM [13]: 0.2%; remaining binding at 1 µM [14]: 3.3%; remaining binding at 1 µM [15]: < 0.5%; remaining binding at 1 µM [16]: < 5.2%; remaining binding at 1 µM [17]: < 4%
